Common to all, as to type: cell-based
In assay [1] the target is T1, human CYP11B1 (Homo sapiens, UniProt P15538).
T1 construct: expressed in transfected cells; host or cells: V79MZh11B1 cells
T1 sequence (P15538 25-503): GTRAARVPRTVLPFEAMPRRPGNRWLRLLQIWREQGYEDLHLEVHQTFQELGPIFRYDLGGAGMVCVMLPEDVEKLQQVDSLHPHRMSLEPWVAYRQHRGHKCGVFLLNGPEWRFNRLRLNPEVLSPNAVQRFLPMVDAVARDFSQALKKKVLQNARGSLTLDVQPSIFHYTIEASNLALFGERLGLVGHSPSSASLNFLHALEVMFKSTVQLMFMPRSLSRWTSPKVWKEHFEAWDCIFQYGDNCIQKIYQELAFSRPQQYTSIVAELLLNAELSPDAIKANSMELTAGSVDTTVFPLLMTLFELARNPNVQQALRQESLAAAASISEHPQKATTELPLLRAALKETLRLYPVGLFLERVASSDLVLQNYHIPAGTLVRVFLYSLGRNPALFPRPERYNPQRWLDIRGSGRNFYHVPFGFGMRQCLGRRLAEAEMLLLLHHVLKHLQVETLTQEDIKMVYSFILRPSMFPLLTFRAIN
The assay can be described thus: V79-Human-CYP11B1 cell assay (cortisol HTRF). The settings on record: V79-hCYP11B1 cells, 250 nM 11-deoxycortisol, 3 hours. The protocol: Methods for V79-Human-CYP11B2 and V79-Human-CYP11B1 Assays: V79 cell lines stably expressing the either the human CYP11B2 or the human CYP11B1 enzyme were generated using a standard transfection protocol. V79 cells were transfected with plasmids pTriEx3-Hygro-hCyp11B2 or pTriEx3-Hygro-hCyp11B1 using Lipofectamine2000 reagent. […] Single cell clones were generated by infinite dilution in DMEM supplemented with 10% FBS and 400 μg/mL hygromycin until single colonies were obtained. […] For testing of inhibitors, cells were harvested at 80% confluency with 0.5% Trypsan-EDTA, washed once in PBS, and reconstituted in DMEM+0.1% BSA media at a cell concentration of 400,000 cells/mL. 25 μl of cells were added to a 384 well tissue culture treated plate and mixed with 0.25 μl of inhibitor or DMSO (1% final DMSO concentration) for 1 hour at 37° C., 5% CO2. […] The reaction was carried out for 3 hours at 37° C., 5% CO2 and was stopped by harvesting the supernatants. […] IC50's for the inhibitor were determined by plotting the amount of product formed against the concentration of inhibitor using sigmoidal dose-response curve (variable slope) fit in GraphPad.
For orientation: TR-FRET usually uses a lanthanide donor and a delayed reading to cut background.

Assay [2] concerns the target T2, human CYP11B2 (Homo sapiens, UniProt P19099).
T2 construct: expressed in transfected cells; host or cells: V79 cells (clone V79-hCYP11B2-CLE9)
T2 sequence (P19099 25-503): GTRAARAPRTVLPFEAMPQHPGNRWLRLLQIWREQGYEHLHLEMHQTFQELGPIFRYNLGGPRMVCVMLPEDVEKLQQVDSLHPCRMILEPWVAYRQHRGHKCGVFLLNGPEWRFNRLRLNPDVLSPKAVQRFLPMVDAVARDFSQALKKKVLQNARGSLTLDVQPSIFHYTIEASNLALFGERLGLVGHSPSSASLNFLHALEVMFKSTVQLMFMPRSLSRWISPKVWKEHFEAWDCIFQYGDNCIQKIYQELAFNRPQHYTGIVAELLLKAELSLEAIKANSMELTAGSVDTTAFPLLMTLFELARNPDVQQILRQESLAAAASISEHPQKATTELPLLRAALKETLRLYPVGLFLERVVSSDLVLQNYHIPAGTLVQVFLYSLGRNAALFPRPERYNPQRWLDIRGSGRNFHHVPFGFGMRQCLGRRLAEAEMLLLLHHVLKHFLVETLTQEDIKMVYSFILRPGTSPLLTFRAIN
The assay can be described thus: V79-Human-CYP11B2 cell assay, modified protocol (600,000 cells/mL). The note with it: 0.30 μl inhibitor. The protocol: (§1) V79 cell lines stably expressing the either the human CYP11B2 or the human CYP11B1 enzyme were generated using a standard transfection protocol. V79 cells were transfected with plasmids pTriEx3-Hygro-hCyp11B2 or pTriEx3-Hygro-hCyp11B1 using Lipofectamine2000 reagent. V79 cells that stably express the human CYP11B2 or human CYP11B1 enzyme were selected for and maintained in DMEM supplemented with 10% FBS and 400 μg/mL hygromycin for ˜2 weeks. Single cell clones were generated by infinite dilution in DMEM supplemented with 10% FBS and 400 μg/mL hygromycin until single colonies were obtained. […] For testing of inhibitors, cells were harvested at 80% confluency with 0.5% Trypsan-EDTA, washed once in PBS, and reconstituted in DMEM+0.1% BSA media at a cell concentration of 400,000 cells/mL. 25 μl of cells were added to a 384 well tissue culture treated plate and mixed with 0.25 μl of inhibitor or DMSO (1% final DMSO concentration) for 1 hour at 37° C., 5% CO2. After pre-incubation with inhibitor, the reaction was initiated by adding 5 μl of substrate (final concentration of 125 nM 11-deoxycorticosterone for the CYP11B2 assay or 250 nM 11-deoxycortisol for the CYP11B1 assay). The reaction was carried out for 3 hours at 37° C., 5% CO2 and was stopped by harvesting the supernatants. The amount of product in the supernatant (aldosterone for CYP11B2 assay and cortisol for the CYP11B1 assay) was measured using HTRF-based assay kit (Aldosterone HTRF-CisBio#64ALDPEB, Cortisol HTRF-CisBio #631DC002-CORT). IC50's for the inhibitor were determined by plotting the amount of product formed against the concentration of inhibitor using sigmoidal dose-response curve (variable slope) fit in GraphPad.
(§2) For the CYP11B2 assay, cells were reconstituted in DMEM+0.1% BSA media at a cell concentration of 600,000 cells/mL and for the CYP11B1 assay cells were reconstituted in DMEM+0.1% BSA media at a cell concentration of 280,000 cells/mL. 25 μl of cells were added to a 384 well tissue culture treated plate and mixed with 0.30 μl of inhibitor or DMSO (1% final DMSO concentration) for 1 hour at 37° C., 5% CO2.

Assay [3] concerns the target T1, human CYP11B1. The assay can be described thus: V79-Human-CYP11B1 cell assay, modified protocol (280,000 cells/mL). The note with it: 0.30 μl inhibitor. As for the experimental part: as §1, §2
Assay [4] concerns the target T2, human CYP11B2. As to the kind of experiment: V79-Human-CYP11B2 cell assay (aldosterone HTRF). The note with it: V79-hCYP11B2 cells, 125 nM 11-deoxycorticosterone, 3 hours. The protocol: Methods for V79-Human-CYP11B2 and V79-Human-CYP11B1 Assays:
V79 cell lines stably expressing the either the human CYP11B2 or the human CYP11B1 enzyme were generated using a standard transfection protocol. V79 cells were transfected with plasmids pTriEx3-Hygro-hCyp11B2 or pTriEx3-Hygro-hCyp11B1 using Lipofectamine2000 reagent. V79 cells that stably express the human CYP11B2 or human CYP11B1 enzyme were selected for and maintained in DMEM supplemented with 10% FBS and 400 μg/mL hygromycin for ˜2 weeks. Single cell clones were generated by infinite dilution in DMEM supplemented with 10% FBS and 400 μg/mL hygromycin until single colonies were obtained. Clones V79-hCYP11B2-CLE9 and V79-hCYP11B1-8C7, were determined to produce the most aldosterone and cortisol, respectively, and were selected for inhibitor screening. […] The amount of product in the supernatant (aldosterone for CYP11B2 assay and cortisol for the CYP11B1 assay) was measured using HTRF-based assay kit (Aldosterone HTRF-CisBio#64ALDPEB, Cortisol HTRF-CisBio #631DC002-CORT). IC50's for the inhibitor were determined by plotting the amount of product formed against the concentration of inhibitor using sigmoidal dose-response curve (variable slope) fit in GraphPad.

For orientation: IC50 means the point on the concentration scale where inhibition reaches its midpoint. Lower therefore signals greater potency. On to `Cc1c(F)cncc1-c1cc(F)c2c(c1)CCc1nncn1-2` [Example 17, 9-fluoro-7-(5-fluoro-4-methylpyridin-3-yl)-4,5-dihydro-[1,2,4]triazolo[4,3a] quinoline], for which the concentration for half-maximal inhibition (IC50) against human CYP11B1 [1] amounted to 1500 nM. The compound `Cc1c(-c2cc(Cl)c3c(c2)CCc2nnc(C)n2-3)cncc1C(C)(O)C(F)(F)F` (stereo not shown) [Example 37, 1-(5-(9-chloro-1-methyl-4,5-dihydro-[1,2,4]triazolo[4,3-a]quinolin-7-yl)-4-methylpyridin-3-yl)-1,1,1-trifluoropropan-2-ol] had an IC50 at human CYP11B1 [1] of 69 nM. The compound `Cc1c(-c2cc(Cl)c3c(c2)CCc2nnc(C)n2-3)cncc1C(C)(O)C(F)(F)F` (stereo not shown) [Example 38, 1-(5-(9-chloro-1-methyl-4,5-dihydro-[1,2,4]triazolo[4,3-a]quinolin-7-yl)-4-methylpyridin-3-yl)-1,1,1-trifluoropropan-2-ol] displayed a half-maximal inhibitory concentration (IC50) against human CYP11B1 [1] of 527 nM. With `COc1c(C)cncc1-c1cc2c(cc1F)-n1c(C)nnc1CC2` [Example 122, 8-fluoro-7-(4-methoxy-5-methylpyridin-3-yl)-1-methyl-4,5-dihydro-[1,2,4]triazolo[4,3-a]quinoline], the IC50 is 32 nM on human CYP11B2 [2] and more than 10000 nM against human CYP11B1 [3]. Take `COC(=O)C1(c2cncc(-c3ccc4c(c3)CCc3nncn3-4)c2)CC1` [Step D, p 76, methyl 1-[5-(4,5-dihydro[1,2,4]triazolo[4,3-a]quinolin-7-yl)-3-pyridinyl]cyclopropanecarboxylate]: the concentration for half-maximal inhibition (IC50) on human CYP11B2 [4] amounted to 17 nM; at human CYP11B1 [1], 157 nM.

Source of the values: patent US9073929B2, “Aldosterone synthase inhibitors” (ElexoPharm GmbH, priority 2011, dated 2015).
